Measured values as given in US20180305334A1, “COMPOUNDS, COMPOSITIONS AND METHODS OF USE AGAINST STRESS GRANULES” (Aquinnah Pharmaceuticals, Inc., priority 2015, published 2018).

test system: TDP-43 aggregation in PC12 cells stably expressing TDP-43^Q331K::eGFP; assay: In vitro efficacy assay, TDP-43 aggregation concentration-response; format: cell-based; settings: Rattus norvegicus, PC-12, inhibition of TDP-43 aggregation; PC12 TDP-43^Q331K::eGFP, 1 hour pre-treatment, 15 μM sodium arsenite for 23 hours; 10-point dose response
Description: Exemplary compounds of the invention were evaluated for efficacy in inhibiting TDP-43 inclusions using a concentration-response assay. Briefly, PC12 cells stably expressing a GFP-tagged mutant form of TDP-43 (TDP-43^Q331K::eGFP) were pre-treated for 1 hour with exemplary compounds and stressed with 15 μM sodium arsenite for 23 hours to induce TDP-43 aggregation. The inhibitory effect on TDP-43 aggregation was measured using fluorescence microscopy. The ratio of cells with TDP-43 aggregates was calculated based on the total number of cells with detectable GFP expression.

Structure (SMILES) | IC50 [µM]
CCN(CC1CCCN(CCc2ccccc2C#N)C1)C(=O)c1cc2ccccc2[nH]1 (centres unmarked) [Compound 147] | > 10
CCN(CC1CCCN(Cc2ccc(-c3nnn[nH]3)cc2)C1)C(=O)c1cc2ccccc2[nH]1 (centres unmarked) [Compound 225] | > 10
CCN(CC1CCN(C2CCc3ccccc3C2)CC1)C(=O)c1cc2ccccc2[nH]1 (centres unmarked) [Compound 211] | 1.5 to 4
CCN(CC1CCCN(Cc2cc3ccccc3o2)C1)C(=O)c1cc2c(OC)cccc2[nH]1 (centres unmarked) [Compound 204] | < 1.5
CCN(CC1CCCN(Cc2ccc(F)cc2)C1)C(=O)c1cc2ccccc2[nH]1 (centres unmarked) [Compound 135] | < 1.5
CCN(CC1CCCN(CCc2cccc(OC)c2)C1)C(=O)c1ccccc1 (centres unmarked) [Compound 234] | > 10
CCN(CC1CCCN(CCc2ccc(C#N)cc2)C1)C(=O)c1cc2ccccc2[nH]1 (centres unmarked) [Compound 142] | > 10
COc1cccc(CCNCCNC(=O)c2cc3ccccc3[nH]2)c1 [Compound 221] | 1.5 to 4
CCN(CC1CCCN(Cc2cccc(F)c2)C1)C(=O)c1cc2ccccc2[nH]1 (centres unmarked) [Compound 131] | > 10
CCN(CC1CCCN(c2cccc(OC)c2)C1)C(=O)c1cc2ccccc2[nH]1 (centres unmarked) [Compound 228] | > 10
CCN(CC1CCCN(CCc2cccc(OC)c2)C1)C(=O)c1ccccn1 (centres unmarked) [Compound 236] | > 10
CCN(CC1CCCN(Cc2ccc(Cl)cc2)C1)C(=O)c1cc2ccccc2[nH]1 (centres unmarked) [Compound 138] | < 1.5
CCN(CC1CCCN(Cc2ccccc2C#N)C1)C(=O)c1cc2ccccc2[nH]1 (centres unmarked) [Compound 130] | 1.5 to 4
CCN(CC1CCN(Cc2cccc(F)c2)CC1)C(=O)c1cc2ccccc2[nH]1 [Compound 252] | > 10
CCN(CC1CCCN(Cc2ccc(Cl)cc2)C1)C(=O)c1cc2cc(OC)ccc2[nH]1 (centres unmarked) [Compound 148] | < 1.5
CCN(CC1CCCN(c2ccc(OC)cc2)C1)C(=O)c1cc2ccccc2[nH]1 (centres unmarked) [Compound 227] | 1.5 to 4
CCN(CC1CCCN(Cc2ccc(OC)cc2)C1)C(=O)c1cc2cc(OCc3ccccc3)ccc2[nH]1 (centres unmarked) [Compound 174] | 1.5 to 4
CCN(CC1CCCN(Cc2ccc(OC)cc2)C1)C(=O)c1cc2c(F)cc(F)cc2[nH]1 (centres unmarked) [Compound 170] | < 1.5

Structure (SMILES) | IC50 [µM]
CCN(CC1CCCN(Cc2ccc(OC(F)(F)F)cc2)C1)C(=O)c1cc2cc(OC(F)(F)F)ccc2[nH]1 (centres unmarked) [Compound 176] | > 10
CCN(CC1CCCN(Cc2ccc(Cl)cc2)C1)C(=O)c1cc2c(OC)cccc2[nH]1 (centres unmarked) [Compound 163] | < 1.5
CCN(CC1CCCN(CCc2ccccc2Cl)C1)C(=O)c1cc2ccccc2[nH]1 (centres unmarked) [Compound 139] | 1.5 to 4
CCN(CC1CCCN(CCc2cccc(OC)c2)C1)C(=O)C1Cc2ccccc2N1C (centres unmarked) [Compound 239] | > 10
CCN(CC1CCCN(CCc2cccc(OC)c2)C1)C(=O)c1cc(C)c[nH]1 (centres unmarked) [Compound 229] | 1.5 to 4
CCN(CC1CCCN(CCc2cccc(OC)c2)C1)C(=O)c1nc2ccccc2[nH]1 (centres unmarked) [Compound 230] | < 1.5
CCN(CC1CCCN(Cc2ccc(Cl)cc2)C1)C(=O)c1cc2c(F)cccc2[nH]1 (centres unmarked) [Compound 165] | 1.5 to 4
CCN(CC1CCCN(Cc2ccc(OC)cc2)C1)C(=O)c1cc2ccccc2[nH]1 (centres unmarked) [Compound 137] | 1.5 to 4
CCN(CC1CCCN(Cc2ccc(Cl)cc2)C1)C(=O)c1cc2ccc(C)cc2[nH]1 (centres unmarked) [Compound 155] | 1.5 to 4
CCN(CC1CCCN(Cc2ccccc2)C1)C(=O)c1cc2ccccc2[nH]1 (centres unmarked) [Compound 132] | 1.5 to 4
CCN(CC1CCCN(Cc2ccc(Cl)cc2)C1)C(=O)c1cc2cc(Cl)ccc2[nH]1 (centres unmarked) [Compound 160] | < 1.5
COc1cccc(CCN2CCCC(CN(C)C(=O)c3cc4ccccc4[nH]3)C2)c1 (centres unmarked) [Compound 217] | < 1.5
CCN(CC1CCCN(Cc2ccc(OC)cc2)C1)C(=O)c1cc2cc(OC)ccc2[nH]1 (centres unmarked) [Compound 149] | < 1.5
CCN(CC1CCCN(Cc2cccc(OC(F)F)c2)C1)C(=O)c1cc2cc(OC(F)F)ccc2[nH]1 (centres unmarked) [Compound 177] | < 1.5
CCN(CC1CCCN(CCc2cccc(OC)c2)C1)C(=O)c1coc2ccccc12 (centres unmarked) [Compound 233] | < 1.5
CCN(CC1CCCN(Cc2ccc(OC)cc2)C1)C(=O)c1cc2cc(F)c(F)cc2[nH]1 (centres unmarked) [Compound 171] | < 1.5
CCN(CC1CCCN(Cc2ccc(OC)cc2)C1)C(=O)c1cc2cccc(F)c2[nH]1 (centres unmarked) [Compound 158] | 4 to 7

Now from value to molecule:

IC50 [µM] | Structure (SMILES)
> 10 | CCN(CC1CCN(Cc2cccc(OC(F)(F)F)c2)CC1)C(=O)c1cc2cc(OC(F)(F)F)ccc2[nH]1 [compound 308]
> 10 | CCN(CC1CCNCC1)C(=O)c1cc2cc(OC)ccc2[nH]1 [compound 400]
< 1.5 | CC(C)(Cc1ccccc1)N1CCC(CN(CC(F)(F)F)C(=O)c2cc3ccccc3[nH]2)CC1 [Compound 354]
< 1.5 | COc1cccc(CC(C)(C)N2CCC(CN(CC(F)(F)F)C(=O)c3cc4ccccc4[nH]3)CC2)c1 [Compound 350]
> 10 | CCN(CC1CCCNC1)C(=O)c1cc2cc(Cl)ccc2[nH]1 (centres unmarked) [compound 420]
< 1.5 | CC(C)(Cc1cccc(F)c1)N1CCCC(CN(CC(F)(F)F)C(=O)c2cc3ccccc3[nH]2)C1 (centres unmarked) [Compound 352]
> 10 | CC(C)N(CC1CCN(Cc2ccc(F)cc2)CC1)C(=O)c1cc2ccccc2[nH]1 [compound 284]
> 10 | CCN(CC1CCCNC1)C(=O)c1cc2cc(F)ccc2[nH]1 (centres unmarked) [compound 414]
> 10 | CCN(CC1CCCNC1)C(=O)c1cc2cc(OC(F)F)ccc2[nH]1 (centres unmarked) [compound 425]
4 to 7 | CCN(CC1CCN(Cc2cccc(OC(F)F)c2)CC1)C(=O)c1cc2cc(OC(F)F)ccc2[nH]1 [compound 310]
7 to 9.9 | CCN(CC1CCN(Cc2ccc(OC(F)F)cc2)CC1)C(=O)c1cc2cc(OC(F)F)ccc2[nH]1 [compound 311]
> 10 | CN(CC1CCN(Cc2ccc(F)cc2)CC1)C(=O)c1cc2ccccc2[nH]1 [compound 269]
> 10 | CC(C)N(CC1CCN(Cc2ccccc2F)CC1)C(=O)c1cc2ccccc2[nH]1 [compound 280]
< 1.5 | CCN(CC1CCN(C(C)(C)Cc2cccc(OC)c2)CC1)C(=O)c1cc2ccccc2[nH]1 [Compound 332]
< 1.5 | CCN(CC1CCCN(CC(C)(C)c2cccc(OC(F)F)c2)C1)C(=O)c1cc2cc(OC(F)F)ccc2[nH]1 (centres unmarked) [Compound 408]
< 1.5 | CCN(CC1CCN(C(C)(C)c2ccccc2)CC1)C(=O)c1cc2cc(OC)ccc2[nH]1 [Compound 359]
1.5 to 4 | CCN(CC1CCN(C(C)(C)Cc2ccc(F)cc2)CC1)C(=O)c1cc2ccccc2[nH]1 [Compound 345]
> 10 | CC(C)N(CC1CCN(Cc2ccccc2Cl)CC1)C(=O)c1cc2ccccc2[nH]1 [compound 281]

IC50 [µM] | Structure (SMILES)
> 10 | O=C(NCC1CCN(Cc2ccccc2Cl)CC1)c1cc2ccccc2[nH]1 [compound 293]
> 10 | CC(C)N(CC1CCNCC1)C(=O)c1cc2ccccc2[nH]1 [compound 276]
< 1.5 | O=C(c1cc2ccccc2[nH]1)N(CC1CCN(CCc2cccc(F)c2)CC1)CC(F)(F)F [compound 306]
> 10 | CN(CC1CCNCC1)C(=O)c1cc2ccccc2[nH]1 [compound 254]
> 10 | CCN(CC1CCCN(CC(C)(C)c2cccc(OC(F)(F)F)c2)C1)C(=O)c1cc2cc(OC(F)(F)F)ccc2[nH]1 (centres unmarked) [Compound 407]
< 1.5 | CCN(CC1CCCN(Cc2cccc(OC)c2)C1)C(=O)c1cc2ccccc2[nH]1 (centres unmarked) [compound 122]
1.5 to 4 | COc1ccc(CN2CCC(CN(C)C(=O)c3cc4ccccc4[nH]3)CC2)cc1 [compound 261]
1.5 to 4 | CCN(CC1CCCN(CC(C)(C)c2cc3ccccc3o2)C1)C(=O)c1cc2ccccc2[nH]1 (centres unmarked) [Compound 409]
> 10 | CCN(CC1CCN(C(C)(C)Cc2ccccc2)CC1)C(=O)c1cc2ccccc2[nH]1 [Compound 333]
1.5 to 4 | CCN(CC1CCN(CC(F)(F)c2cccc(OC)c2)CC1)C(=O)c1cc2ccccc2[nH]1 [Compound 412]
> 10 | CCN(CC1CCCNC1)C(=O)c1cc2cc(OC)c(OC)cc2[nH]1 (centres unmarked) [compound 415]
1.5 to 4 | CCN(CC1CCN(CCc2cccc(OC)c2)CC1)C(=O)c1cc2ccccc2[nH]1 [compound 253]
> 10 | CCN(CC1CCN(C(C)(C)Cc2ccc(OC)cc2)CC1)C(=O)c1cc2ccccc2[nH]1 [Compound 344]
> 10 | O=C(NCC1CCN(Cc2ccccc2F)CC1)c1cc2ccccc2[nH]1 [compound 272]
1.5 to 4 | COc1ccccc1CN1CCC(CNC(=O)c2cc3ccccc3[nH]2)CC1 [compound 273]
4 to 7 | CCN(CC1CCCNC1)C(=O)c1cc2cc(OCc3ccccc3)ccc2[nH]1 (centres unmarked) [compound 424]
< 1.5 | CCN(CC1CCCN(C(C)(C)c2ccc(OC)cc2)C1)C(=O)c1cc2cc(OC)ccc2[nH]1 (centres unmarked) [Compound 356]

same assay, conditions: inhibition of TDP-43 aggregation; PC12 TDP-43^Q331K::eGFP, 1 hour pre-treatment, 15 μM sodium arsenite for 23 hours; 10-point dose response

IC50 [µM] | Structure (SMILES)
1.5 to 4 | CCN(CC1CCCN(C(C)(C)Cc2cccc(OC)c2)C1)C(=O)c1cc2ccccc2[nH]1 (centres unmarked) [Compound 331]
< 1.5 | CCN(CC1CCCN(Cc2ccc(Cl)cc2)C1)C(=O)c1cc2ccc(Cl)cc2[nH]1 (centres unmarked) [Compound 167]
< 1.5 | CCN(CC1CCCN(C(C)(C)Cc2cccc(OC(F)(F)F)c2)C1)C(=O)c1cc2cc(OC(F)(F)F)ccc2[nH]1 (centres unmarked) [Compound 337]
< 1.5 | CCN(CC1CCCN(C(C)(C)Cc2cccc(OC)c2)C1)C(=O)c1cc2cc(OC)ccc2[nH]1 (centres unmarked) [Compound 334]
